Assay results from PubChem BioAssay AID623999 (Broad Institute, 2012).
Inconclusive results are not listed. The source made the active and inactive calls.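 Rule for the calls: active = inhibition in every test run, with half-maximal concentration at most twice the top tested dose; inconclusive = the separate test runs disagree on their calls; inactive = every test run inactive, including opposite effects.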

target: Cyclin-dependent kinase 5 (Homo sapiens) + Cyclin-dependent kinase 5 activator 1 (Homo sapiens) (UniProt Q00535+Q15078); assay: CDK5-p25 kinase inhibition, dose response, selectivity assay for GSK3beta inhibitor project, biochemical, ADP-Glo luminescence, dry powder samples (AID 623999); details: histone H1 peptide
Sequence (Q00535 whole entry, looked up): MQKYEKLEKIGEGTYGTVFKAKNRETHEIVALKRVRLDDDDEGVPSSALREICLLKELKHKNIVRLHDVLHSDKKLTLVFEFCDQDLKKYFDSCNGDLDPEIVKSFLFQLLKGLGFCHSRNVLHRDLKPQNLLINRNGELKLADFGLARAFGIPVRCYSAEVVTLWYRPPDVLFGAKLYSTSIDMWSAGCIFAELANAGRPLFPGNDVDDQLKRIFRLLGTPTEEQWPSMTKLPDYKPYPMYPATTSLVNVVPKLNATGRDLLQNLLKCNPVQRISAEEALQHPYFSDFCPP
Sequence (Q15078 whole entry, looked up): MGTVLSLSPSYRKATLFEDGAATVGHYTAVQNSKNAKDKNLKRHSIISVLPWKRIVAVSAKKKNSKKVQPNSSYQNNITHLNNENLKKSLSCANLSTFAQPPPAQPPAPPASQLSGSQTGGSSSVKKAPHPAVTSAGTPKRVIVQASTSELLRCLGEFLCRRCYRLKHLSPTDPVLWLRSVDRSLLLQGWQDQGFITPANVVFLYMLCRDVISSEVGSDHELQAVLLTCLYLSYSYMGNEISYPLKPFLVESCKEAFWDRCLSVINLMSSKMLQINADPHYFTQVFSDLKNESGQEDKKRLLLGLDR

AC50 | SMILES
5.1 µM | Cc1[nH]nc2c1C(c1ccccc1Cl)C1=C(CC(C)(C)CC1=O)N2 (centres undefined)
10.1 µM | COc1ccccc1C1C2=C(CCC(C)(C)C2=O)Nc2n[nH]c(C)c21 (centres undefined)
5.88 µM | COc1ccccc1C1C2=C(CC3(CCCCC3)CC2=O)Nc2n[nH]c(C)c21 (centres undefined)
32.6 µM | CC1(C)CC(=O)C2=C(C1)Nc1n[nH]c(C(F)(F)F)c1C2c1cc(F)ccc1OC(F)(F)F (centres undefined)
2.22 µM | CCc1[nH]nc2c1C(c1ccccc1OC)C1=C(CC(C)(C)CC1=O)N2 (centres undefined)
39.7 µM | Cc1cccc(C2C3=C(CC(C)(C)CC3=O)Nc3n[nH]c(C)c32)c1 (centres undefined)
27.8 µM | Cc1[nH]nc2c1C(C)C1=C(CC(C)(C)CC1=O)N2 (centres undefined)
10.9 µM | Cc1[nH]nc2c1C(c1cccc(C(F)(F)F)c1)C1=C(CC(C)(C)CC1=O)N2 (centres undefined)
22.4 µM | CC1(C)CC(=O)C2=C(C1)Nc1n[nH]c(C(F)(F)F)c1C2c1ccc(F)cc1C(F)(F)F (centres undefined)
15.1 µM | COc1ccccc1C1C2=C(CCCC2=O)Nc2n[nH]c(C)c21 (centres undefined)
4.04 µM | Cc1[nH]nc2c1C(c1ccccc1C#N)C1=C(CC(C)(C)CC1=O)N2 (centres undefined)
16.5 µM | Cc1ccccc1C1C2=C(CC(C)(C)CC2=O)Nc2n[nH]c(C)c21 (centres undefined)
34.6 µM | COc1ccccc1-c1c2c(nc3n[nH]c(C)c13)CCC2=O
2.57 µM | Cc1[nH]nc2c1C(c1cccc3nonc13)C1=C(CC(C)(C)CC1=O)N2 (centres undefined)
5.82 µM | COc1ccccc1C1C2=C(CC(C)(C)CC2=O)Nc2[nH]ncc21 (centres undefined)
3.98 µM | CSc1ccccc1C1C2=C(CC(C)(C)CC2=O)Nc2n[nH]c(C)c21 (centres undefined)
47.2 µM | CC1(C)CC(=O)C2=C(C1)Nc1n[nH]c(C(F)(F)F)c1C2c1ccccc1F (centres undefined)
22.2 µM | CC1(C)CC(=O)C2=C(C1)Nc1n[nH]c(C(F)(F)F)c1C2c1ccccc1 (centres undefined)
6.81 µM | Cc1[nH]nc2c1C(c1cccc(C#N)c1)C1=C(CC(C)(C)CC1=O)N2 (centres undefined)
4.84 µM | COc1ccccc1C1C2=C(CC(C)(C)CC2=O)Nc2n[nH]c(C(C)C)c21 (centres undefined)
0.418 µM | O=S(=O)(Nc1ccccn1)c1ccc(N=Cc2c(O)[nH]c3ccc4ncsc4c23)cc1
8.29 µM | CC1(C)CC(=O)C2=C(C1)Nc1n[nH]c(C(F)(F)F)c1C2c1cc(F)ccc1C(F)(F)F (centres undefined)
47.4 µM | CC1(C)CC(=O)C2=C(C1)Nc1n[nH]c(C(F)(F)F)c1C2c1cc(F)ccc1F (centres undefined)
43 µM | CC1(C)CC(=O)C2=C(C1)Nc1n[nH]c(C(F)(F)F)c1C2c1c(F)cccc1F (centres undefined)
25.4 µM | O/N=C/c1cn(-c2ccccc2)nc1-c1ccc(Cl)cc1
14.5 µM | Cc1[nH]nc2c1C(C)(c1ccccc1)C1=C(CC(C)(C)CC1=O)N2 (centres undefined)
9.55 µM | COc1ccccc1C1C(C(C)=O)=C(C)Nc2n[nH]c(C)c21 (centres undefined)
0.841 µM | Cc1[nH]nc2c1C(c1ccccc1C(F)(F)F)C1=C(CC(C)(C)CC1=O)N2 (centres undefined)
0.461 µM | Cc1[nH]nc2c1[C@@H](c1ccccc1C(F)(F)F)C1=C(CC(C)(C)CC1=O)N2

same assay, conditions: histone H1 peptide, at 46 µM (top of the series)

activity change, negative = inhibition | SMILES
inactive | CC1(C)CC(=O)/C(=C\c2cccc(F)c2C(F)(F)F)C(=Nc2cc(C(F)(F)F)[nH]n2)C1
inactive | COc1ccccc1/C=C1\C(=O)CC(C)(C)CC1=Nc1cc(C(F)(F)F)[nH]n1
inactive | CC(C)COc1ccc(-c2nn(-c3ccccc3)cc2/C=N/O)cc1
inactive | COc1ccccc1C1C2=C(CC(C)(C)CC2=O)Nc2onc(C)c21 (centres undefined)
inactive | COc1ccc(-c2nn(-c3ccccc3)cc2C(=O)N(C)C)cc1
inactive | CN(C)Cc1cn(-c2ccccc2)nc1-c1ccccc1
inactive | CC(C)c1ccc(-c2nn(-c3ccccc3)cc2/C=N/O)cc1
inactive | Cc1[nH]nc2nc3c(cc12)C(=O)CC(C)(C)C3
inactive | CC1(C)CC(=O)/C(=C\c2ccccc2C(F)(F)F)C(=Nc2cc(C(F)(F)F)[nH]n2)C1
inactive | COc1ccccc1[C@H]1C2=C(CC(C)(C)CC2=O)Nc2n[nH]c(C(F)(F)F)c21
inactive | O/N=C/c1cn(-c2ccccc2)nc1-c1ccc(F)cc1
inactive | CNC(=O)c1cn(-c2ccccc2)nc1-c1ccc(OC)cc1
inactive | Cc1[nH]nc2c1C(c1ccc(C(F)(F)F)cc1)C1=C(CC(C)(C)CC1=O)N2 (centres undefined)
inactive | Cc1[nH]nc2c1C(c1ccc(C#N)cc1)C1=C(CC(C)(C)CC1=O)N2 (centres undefined)
inactive | COc1ccccc1C1C2=C(CC(C)(C)CC2=O)Nc2n[nH]c(C(C)(C)C)c21 (centres undefined)
inactive | COc1ccc(-c2nn(-c3ccccc3)cc2C(=O)O)cc1
inactive | Cc1[nH]nc2c1C(C1CCCCC1)C1=C(CC(C)(C)CC1=O)N2 (centres undefined)
inactive | COc1ccc(-c2nn(-c3ccccc3)cc2CO)cc1
inactive | O/N=C/c1cn(-c2ccccc2)nc1-c1ccccc1
inactive | COc1cccc(-c2nn(-c3ccccc3)cc2/C=N/O)c1
